Measurements from patent US9040580B2, “Method for prevention or treatment of degenerative neurologial brain disorders” (B[…]., LTD., priority 2010, dated 2015).

Assays:
[1] = established by the World Heath Organization (WHO); cited from earlier work
[2] = Hydroxyl radical removal ability test (Fenton reaction, DMPO spin trap, ESR); type: biochemical
Method: In order to identify active oxygen removal ability of methylparaben (MP), Fenton reaction [H2O2+FeSO4] was performed to derive hydroxyl radicals. The derived hydroxyl radicals were entrapped by a nitrone spin trap (DMPO) and the entrapped DMPO-OH addition product was measured by an electron spin resonance (ESR) spectrometer. ESR spectrum was measured by reacting a reaction reagent [phosphate buffer solution (pH 7.4); 4.5 M DMPO 10 μl, 0.6 mM FeSO4 75 μl, 2.8 M H2O2 75 μl], methylparaben and vitamin C (VitC), then, using an ESR spectrometer (JES-FA, JEOL, Japan), and the measured results are shown in FIG. 2. In this regard, the ESR spectrometer carried out analysis using some parameters [magnetic field 340 mT, power 1.00 mW, frequency 9.19 GHz, amplitude modulation 0.2 mT, gain 200, scanning time 2 minutes, scanning width 10 mT, time constant 0.03 seconds, and temperature 20° C.].

[3] = system: Parkinson's disease model (6-OHDA) C57BL/6 mouse; assay: Rotarod test in Parkinson's disease model; type: in vivo; settings: FIG. 7
Method: In order to identify whether methylparaben (MP) can improve movement dysfunction of the Parkinson's disease model, a rotarod test was performed and the test results were evaluated on day 14 after the surgery of Parkinson's disease. The rotarod test refers to a test of measuring a residence time when a mouse was riding on a rotarod without falling off. A rotation speed of the rotarod was set to 10 rpm and the rotarod test was performed over 10 minutes after an adaptation time of 5 minutes. A riding time on the rotarod was repeatedly measured three times and a mean value was calculated, then, a final value was represented in the form of the mean value±mean error (n=6).

[4] = system: Parkinson's disease model (6-OHDA) C57BL/6 mouse; assay: Passive avoidance test in Parkinson's disease model; type: in vivo; settings: FIG. 10
Method: As a test device, a shuttle box having a size of 50×15×40 cm in width×length×height and being provided with an electrically conductive grid was used. The box was separated into two rooms, each having a size of 25×15 cm, by a connecting guillotine door (10×10 cm). Each room was illuminated using a 20 W light bulb. Noise was 60 dB or less and the test was performed in a room with very low illumination.
A mouse was placed in one room (A) of the two rooms separated by the door and the door was opened while turning on a light at 1500 lux. By doing this, the mouse looked around the room and entered the other room (B) without illumination. At this time, the door was operated to be automatically closed. By measuring a time taken from the opening of the door while turning on the light, to the closing of the door, a latency time was determined. The mouse may pass from room A to room B if the above process is repeated. If the mouse crossed from room A into room B within 20 seconds by repeating the above described process, a training process was deemed to be completed. […]
The mouse may develop a memory of a relation between the dark room and the foot-shock. […] After 1 day, a time taken from placing the above mouse in room A just before the mouse crossed into room B when a light turned on, was measured. […]

[5] = system: Parkinson's disease model (6-OHDA) C57BL/6 mouse; assay: Observation of rotary movement (apomorphine-induced) in Parkinson's disease model; settings: FIG. 8
[6] = system: Parkinson's disease model (6-OHDA) C57BL/6 mouse; assay: Y-shaped maze test in Parkinson's disease model; type: in vivo; settings: FIG. 9
Method: An Y-shaped maze measurement device has three extending arms to form an alphabet ‘Y’ shape wherein each arm has a length of 35 cm, height of 9 cm, and width of 5 cm, and all arms are formed at the same angle. After positioning a test animal to face an end of one of the arms of the Y-shaped maze, the animal was allowed to freely go around the arms for 8 minutes. Motions of the animal were recorded and, when the animal with hind legs moved inside the arm, the animal was deemed to pass the arm (‘arm entry’). Movement of the animal was represented by the number of crossings (‘alternation’) and one alternation is defined to be when the animal continuously passes three arms. A quantity of spontaneous crossing movement is a percentage ratio of a practical alternation and a maximum possible alternation (that is, a total alternation −2).

SH-SY5Y cells [7] = assay: Cell protective activity against excitatory brain neurotransmitter (glutamate), WST-1; type: cell-based, human; settings: for apoptosis caused by excitatory brain neurotransmitter: 4 h pre-culture, then 2 mM glutamate 24 h, FIG. 5
Method: (§1) In order to identify whether methylparaben (MP) in cultured cells has cell protective effects against active oxygen, excitatory brain neurotransmitter, and α-synuclein, a cell protective activity test was performed. These materials, that is, the active oxygen, excitatory brain neurotransmitter, and α-synuclein has been indicated as a cause of extensive damage of nerve cells with respect to Parkinson's disease and other degenerative cerebral disorders.
(§2) Each well of a 96-well plate was provided with SH-SY5Y cells (5×10^3 cells; 10% FBS added DMEM medium) derived from human nerve cancer and cultured at 37° C. for 24 hours. After this, 1, 10 and 100 ng/ml of methylparaben (MP), 50 μM Vitamin E (Vit E) or 10 μM MK-801 was added and further cultured for 4 hours. Alternatively, as a control group, a culture solution without the addition of a drug was prepared. After culturing for 4 hours, 300 mM hydrogen peroxide solution (H2O2) generating active oxygen, 2 mM glutamate as an excitatory brain neurotransmitter, and 2 μM α-synuclein were further added and cultured for 24 hours. After culturing, the cultured solution was washed using phosphate buffered saline (PBS). 100 μl cultured solution provided with a 10% cell proliferation reagent (WST-1) was poured into an incubator at 37° C. and reacted for 1 hour under […], and then, absorbance was measured at 450 nm.

SH-SY5Y cells [8] = assay: Cell protective activity against α-synuclein, WST-1; type: cell-based, human; settings: for apoptosis caused by α-synuclein: 4 h pre-culture, then 2 μM α-synuclein 24 h, FIG. 6
Method: as §1, §2

SH-SY5Y cells [9] = assay: Cell protective activity against active oxygen (hydrogen peroxide), WST-1; type: cell-based, human; settings: for apoptosis caused by active oxygen: 4 h pre-culture, then 300 mM H2O2 24 h, FIG. 4
Method: as §1, §2

[10] = 100 μg/kg i.p. everyday for 2 weeks
[11] = 200 μg/kg i.p. everyday for 2 weeks

CCOC(=O)c1ccc(O)cc1 [ethylparaben]
daily proper intake [1]: 10 mg/kg

COC(=O)c1ccc(O)cc1 [methylparaben]
amount of active oxygen (ESR, DMPO-OH) ([2]; adding methylparaben, Fenton reaction, pH 7.4, FIG. 2): reduced an amount of active oxygen
active oxygen inhibitory ability compared with VitC ([2]; methylparaben 100 μg/ml): substantially similar to that of VitC
active oxygen inhibitory ability ([2]; methylparaben added, in relation to concentration, FIG. 3, n=4): active oxygen inhibitory ability was increased
movement ability (riding time on rotarod) [3, 10]: significantly improving
movement ability (riding time on rotarod) [3, 11]: significantly improving
memory (latency time, passive avoidance) [4, 10]: significantly improving
memory (latency time, passive avoidance) [4, 11]: significantly improving
rotary movement dysfunction (number of revolutions after apomorphine) [5, 10]: significantly improving
rotary movement dysfunction (number of revolutions after apomorphine) [5, 11]: significantly improving
memory (spontaneous alternation, Y-shaped maze) [6, 10]: significantly improving
memory (spontaneous alternation, Y-shaped maze) [6, 11]: significantly improving
apoptosis caused by excitatory brain neurotransmitter (SH-SY5Y cells [7]; 10 ng/ml): significantly suppressed
apoptosis caused by excitatory brain neurotransmitter (SH-SY5Y cells [7]; 100 ng/ml): significantly suppressed
cell protective effect compared with positive control groups (SH-SY5Y cells [7]; 10 and 100 ng/ml, glutamate): substantially similar to 50 μM VitE or 10 μM MK-801
daily proper intake [1]: 10 mg/kg
apoptosis caused by α-synuclein (SH-SY5Y cells [8]; 10 ng/ml): significantly suppressed
apoptosis caused by α-synuclein (SH-SY5Y cells [8]; 100 ng/ml): significantly suppressed
cell protective effect compared with positive control groups (SH-SY5Y cells [8]; 10 and 100 ng/ml, α-synuclein): substantially similar to 50 μM VitE or 10 μM MK-801
apoptosis caused by active oxygen (SH-SY5Y cells [9]; 10 ng/ml): significantly suppressed
apoptosis caused by active oxygen (SH-SY5Y cells [9]; 100 ng/ml): significantly suppressed
cell protective effect compared with positive control groups (SH-SY5Y cells [9]; 10 and 100 ng/ml, H2O2): substantially similar to 50 μM VitE or 10 μM MK-801
